We go through three compounds from patent US6617319B2, “Methods of use for 2-deoxy ecdysterone” (Council of Science and Industrial Research, priority 2000, dated 2003).

One data set deals with guinea pig uterus. It counts as cell-based. From the text: A female virgin guinea pig that was in oestrous and weighing around 400-500 gm was used for the test. The animal was killed by a stunning blow on the head. The abdomen was immediately cut open. The uterus was dissected out and placed in a petri plate containing aerated De Jalon's solution (M. N Ghosh, in fundamentals of Experimental Pharmacology, 1984, second edition, Scientific book agency, Calcutta). The uterus was freed from fat and the two uterine horns were separated by cutting the lower end. Only one horn was used for the experiment. Two small loops of thread were made at each end of the uterus and kept in a tissue bath of 10 ml capacity containing aerated De Jalon's solution. The lower end was tied to the tissue holder and the upper end to the writing lever. The lever was balanced to provide a tension of 1 g with plasticene. The tissue was left in the bath for ½ hr for stabilisation before starting the experiment and the physiological solution (De Jalon's solution) was renewed every 10 minutes. This example illustrates the procedure used for the preparation of the guinea pig uterus for testing the oxytocic property of the pure white solid, 2-deoxy ecdysterone.
After stabilisation, 2-3 doses of oxytocin (Parke Davis Ltd, Hyderabad) were added as standard to the physiological solution, the dose depending on the amplitude of contraction to obtain uniform contractions. The extract was then added to the bath (50 & 250 μg/ml) and allowed to act for one minute. If a contraction was observed during that one-minute period, extract was considered to be oxytocin-like and having oxytocic property. After every contraction, the tissue was immediately washed twice with the physiological solution and relaxed for 10 minutes. The same procedure was followed for the crude extract, fractions and the purified white solid, identified as 2-deoxy ecdysterone.
The oxytocic activity of the crude, fractions and the pure compound was tested on the guinea pig uterus based on its ability to contract the relaxed uterus. The tissue was spiked with a standard oxytocic agent which induces contraction of the tissue. The efficacy of the testing agent was measured by its ability to contract the uterus by comparing the height of contraction with the standard oxytocin (Table 1). This example illustrates the procedure used for testing the crude extract and the detailed procedure followed.

The conditions of data set [1]: radiolabelled compound injected into human volunteers; within 5 hours; cited from earlier work.

Where “and” joins values, the source holds several entries; their conditions need not be identical. Equal entries are not always repeated.

For the compound 2-deoxy ecdysterone, in the data set on guinea pig uterus, the “% response compared to standard PGF2α” value is 69.4% and 82.3% and 114.1%; the “% response compared to standard oxytocin” value was 80.8% and 92.3% and 118.0%; the “Inducing contractions in the guinea pig uterus” value is recorded as “effective”; the “Potency compared with standard oxytocin and PGF2α” value was “more potent than the standard oxytocin and PGF2α”.
Consider `CCCCC[C@H](O)/C=C/[C@H]1[C@H](O)CC(=O)[C@@H]1C/C=C\CCCC(=O)O` [PGE2], for which, in data set [1], the “Radioactivity excreted in the urine” value is “about 50%”.
With `CCCCC[C@H](O)/C=C/[C@@H]1[C@@H](C/C=C\CCCC(=O)O)[C@@H](O)C[C@H]1O` [PGF2α], the “Radioactivity excreted in the urine” value in data set [1] is “around 90%”.
